The text below walks through data of ChEMBL document CHEMBL4831531, “Mangostanin Derivatives as Novel and Orally Active Phosphodiesterase 4 Inhibitors for the Treatment of Idiopathic Pulmonary Fibrosis with Improved Safety” (J Med Chem, 2021).

Series [1] has as its target 3',5'-cyclic-AMP phosphodiesterase 4D (Homo sapiens, UniProt Q08499). Description: Inhibition of PDE4D2 (86-413) (unknown origin) expressed in Escherichia coli BL21 assessed as using [3H]-cAMP as substrate measured for 15 mins by liquid scintillation counting analysis.
The target in series [2] is Dual specificity calcium/calmodulin-dependent 3',5'-cyclic nucleotide phosphodiesterase 1C (Homo sapiens, UniProt Q14123). Description: Inhibition of PDE1C (147-531) (unknown origin) expressed in Escherichia coli BL21 assessed as using [3H]-cAMP as substrate measured for 15 mins by liquid scintillation counting analysis.
Sequence of Dual specificity calcium/calmodulin-dependent 3',5'-cyclic nucleotide phosphodiesterase 1C (Q14123 whole entry): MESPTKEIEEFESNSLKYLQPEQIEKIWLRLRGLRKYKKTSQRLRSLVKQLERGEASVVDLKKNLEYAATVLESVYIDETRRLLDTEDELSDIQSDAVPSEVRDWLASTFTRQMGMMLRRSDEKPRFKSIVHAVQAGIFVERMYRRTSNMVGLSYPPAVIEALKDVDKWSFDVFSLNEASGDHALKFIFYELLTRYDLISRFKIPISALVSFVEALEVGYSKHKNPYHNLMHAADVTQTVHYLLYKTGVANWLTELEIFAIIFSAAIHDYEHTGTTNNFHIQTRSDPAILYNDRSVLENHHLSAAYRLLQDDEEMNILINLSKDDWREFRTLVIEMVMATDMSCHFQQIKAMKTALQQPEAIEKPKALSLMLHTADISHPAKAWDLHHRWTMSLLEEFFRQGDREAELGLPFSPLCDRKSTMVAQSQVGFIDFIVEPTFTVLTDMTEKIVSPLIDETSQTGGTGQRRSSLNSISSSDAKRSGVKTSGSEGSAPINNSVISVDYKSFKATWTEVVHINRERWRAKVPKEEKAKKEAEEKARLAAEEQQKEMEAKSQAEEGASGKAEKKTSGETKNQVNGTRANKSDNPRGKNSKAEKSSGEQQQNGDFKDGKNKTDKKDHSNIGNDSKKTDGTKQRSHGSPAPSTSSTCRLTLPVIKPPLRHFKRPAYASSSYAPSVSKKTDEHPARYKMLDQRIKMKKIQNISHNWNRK
The target of series [3] is cGMP-dependent 3',5'-cyclic phosphodiesterase (Homo sapiens, UniProt O00408). The series can be described thus: Inhibition of PDE2A (580-919) (unknown origin) expressed in Escherichia coli BL21 assessed as using [3H]-cAMP as substrate measured for 15 mins by liquid scintillation counting analysis.
Sequence of cGMP-dependent 3',5'-cyclic phosphodiesterase (O00408 whole entry): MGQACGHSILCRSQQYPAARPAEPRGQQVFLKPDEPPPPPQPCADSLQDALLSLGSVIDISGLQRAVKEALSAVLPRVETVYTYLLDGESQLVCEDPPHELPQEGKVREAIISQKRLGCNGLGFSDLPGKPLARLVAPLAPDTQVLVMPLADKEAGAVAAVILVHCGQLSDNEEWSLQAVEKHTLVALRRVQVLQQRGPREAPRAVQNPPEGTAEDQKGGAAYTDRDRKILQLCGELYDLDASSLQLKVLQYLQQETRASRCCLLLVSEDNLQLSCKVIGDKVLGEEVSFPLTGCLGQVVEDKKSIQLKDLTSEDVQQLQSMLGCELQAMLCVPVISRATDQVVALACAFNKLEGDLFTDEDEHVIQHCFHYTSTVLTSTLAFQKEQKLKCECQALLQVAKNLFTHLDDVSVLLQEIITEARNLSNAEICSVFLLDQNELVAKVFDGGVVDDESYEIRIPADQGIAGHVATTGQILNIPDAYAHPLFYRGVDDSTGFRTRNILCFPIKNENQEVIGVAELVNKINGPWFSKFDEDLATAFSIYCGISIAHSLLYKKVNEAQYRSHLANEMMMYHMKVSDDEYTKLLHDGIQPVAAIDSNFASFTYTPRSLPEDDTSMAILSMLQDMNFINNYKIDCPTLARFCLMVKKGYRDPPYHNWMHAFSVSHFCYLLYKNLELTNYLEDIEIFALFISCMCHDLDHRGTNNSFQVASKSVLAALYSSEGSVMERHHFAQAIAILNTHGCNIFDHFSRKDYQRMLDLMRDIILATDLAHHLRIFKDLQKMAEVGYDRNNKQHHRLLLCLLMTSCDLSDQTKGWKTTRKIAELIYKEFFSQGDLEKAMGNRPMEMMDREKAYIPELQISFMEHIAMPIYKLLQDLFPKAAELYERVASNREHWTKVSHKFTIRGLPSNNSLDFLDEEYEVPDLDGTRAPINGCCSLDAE
The target of series [4] is cGMP-specific 3',5'-cyclic phosphodiesterase (Homo sapiens, UniProt O76074). Description: Inhibition of PDE5A1 (535-860) (unknown origin) expressed in Escherichia coli BL21 assessed as using […] as substrate measured for 15 mins by liquid scintillation counting analysis.
Series [5] deals with High affinity 3',5'-cyclic-AMP phosphodiesterase 7A (Homo sapiens, UniProt Q13946). The series can be described thus: Inhibition of PDE7A1 (130-482) (unknown origin) expressed in Escherichia coli BL21 assessed as using [3H]-cAMP as substrate measured for 15 mins by liquid scintillation counting analysis.
Sequence of High affinity 3',5'-cyclic-AMP phosphodiesterase 7A (Q13946 whole entry): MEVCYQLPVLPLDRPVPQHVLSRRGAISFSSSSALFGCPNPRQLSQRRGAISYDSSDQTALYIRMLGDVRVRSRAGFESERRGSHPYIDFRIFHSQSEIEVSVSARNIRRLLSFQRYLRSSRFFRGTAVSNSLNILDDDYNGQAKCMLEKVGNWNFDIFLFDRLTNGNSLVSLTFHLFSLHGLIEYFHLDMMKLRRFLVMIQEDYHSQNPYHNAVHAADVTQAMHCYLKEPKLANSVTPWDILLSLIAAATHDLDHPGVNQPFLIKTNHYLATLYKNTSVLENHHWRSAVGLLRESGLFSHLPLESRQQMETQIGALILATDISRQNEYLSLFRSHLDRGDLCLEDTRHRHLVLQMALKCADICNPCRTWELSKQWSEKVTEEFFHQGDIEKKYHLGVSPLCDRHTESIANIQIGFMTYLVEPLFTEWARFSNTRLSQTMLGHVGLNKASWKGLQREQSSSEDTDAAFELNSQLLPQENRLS
Series [6] in a line: Tmax in Sprague-Dawley rat at 5 mg/kg, po. It counts as ADME, organism-based. As to conditions: in vivo.
The nature of series [7]: Cmax in Sprague-Dawley rat at 10 mg/kg, po. It counts as ADME, organism-based. Details: route oral, dose 10 mg/kg. Conditions: in vivo.
The nature of series [8]: Metabolic stability in rat liver microsomes assessed as half life. It counts as ADME, Microsome. For orientation: Liver microsomes are vesicles of endoplasmic reticulum, rich in cytochrome P450 enzymes.
In a further series the target is Cytochrome P450 2D6 (Homo sapiens, UniProt P10635). Description: Inhibition of human hepatic CYP2D6. The series is classed as ADME, tissue-based, Liver.
Sequence of Cytochrome P450 2D6 (P10635 whole entry): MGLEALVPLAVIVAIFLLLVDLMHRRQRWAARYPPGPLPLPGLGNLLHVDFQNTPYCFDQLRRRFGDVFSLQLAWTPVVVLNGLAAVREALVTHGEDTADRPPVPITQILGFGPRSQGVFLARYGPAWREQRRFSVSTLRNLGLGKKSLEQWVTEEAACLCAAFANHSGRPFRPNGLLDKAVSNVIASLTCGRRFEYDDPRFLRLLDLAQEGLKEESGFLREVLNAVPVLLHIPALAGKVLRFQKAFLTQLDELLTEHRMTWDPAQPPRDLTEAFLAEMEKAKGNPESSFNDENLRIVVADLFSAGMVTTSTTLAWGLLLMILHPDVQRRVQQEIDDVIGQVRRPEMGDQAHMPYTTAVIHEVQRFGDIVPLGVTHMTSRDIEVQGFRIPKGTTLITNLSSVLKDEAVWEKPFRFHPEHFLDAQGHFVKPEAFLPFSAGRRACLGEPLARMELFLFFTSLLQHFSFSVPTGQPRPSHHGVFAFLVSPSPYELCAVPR
Series [9] in a line: Acute toxicity in mouse at 1.5 g/Kg, po. As to conditions: in vivo, 1500 mg/kg.
Series [10] can be described thus: Toxicity in dog assessed as emesis at 10 mg/kg, po. It counts as organism-based, Canis lupus familiaris. Conditions: in vivo.
Series [11] deals with Rattus norvegicus. Description: Anti-idiopathic pulmonary fibrotic activity in bleomycin-induced Sprague-Dawley rat model assessed as reversal of peak expiratory flow at 10 mg/kg, po treated for 28 consecutive days relative to control. The series is classed as functional, organism-based.
Series [12] relates to Rattus norvegicus. Description: Anti-idiopathic pulmonary fibrotic activity in bleomycin-induced Sprague-Dawley rat model assessed as reversal of respiratory rate at 10 mg/kg, po treated for 28 consecutive days relative to control. It counts as functional, organism-based.
The subject of series [13] is Rattus norvegicus. Description: Anti-idiopathic pulmonary fibrotic activity in bleomycin-induced Sprague-Dawley rat model assessed as reversal of enhanced pause at 10 mg/kg, po treated for 28 consecutive days relative to control. The series is classed as functional, organism-based.
The subject of series [14] is Rattus norvegicus. Description: Anti-idiopathic pulmonary fibrotic activity in bleomycin-induced Sprague-Dawley rat model assessed as inhibition of collagen deposition around trachea and cell hyperplasia at 10 mg/kg, po treated for 28 consecutive days by Hematoxylin and eosin staining based assay relative to control. The series is classed as functional.

Each structure is given as a SMILES string. Calls of active or inactive are those of the source.

Sequence of 3',5'-cyclic-AMP phosphodiesterase 4D (Q08499 whole entry): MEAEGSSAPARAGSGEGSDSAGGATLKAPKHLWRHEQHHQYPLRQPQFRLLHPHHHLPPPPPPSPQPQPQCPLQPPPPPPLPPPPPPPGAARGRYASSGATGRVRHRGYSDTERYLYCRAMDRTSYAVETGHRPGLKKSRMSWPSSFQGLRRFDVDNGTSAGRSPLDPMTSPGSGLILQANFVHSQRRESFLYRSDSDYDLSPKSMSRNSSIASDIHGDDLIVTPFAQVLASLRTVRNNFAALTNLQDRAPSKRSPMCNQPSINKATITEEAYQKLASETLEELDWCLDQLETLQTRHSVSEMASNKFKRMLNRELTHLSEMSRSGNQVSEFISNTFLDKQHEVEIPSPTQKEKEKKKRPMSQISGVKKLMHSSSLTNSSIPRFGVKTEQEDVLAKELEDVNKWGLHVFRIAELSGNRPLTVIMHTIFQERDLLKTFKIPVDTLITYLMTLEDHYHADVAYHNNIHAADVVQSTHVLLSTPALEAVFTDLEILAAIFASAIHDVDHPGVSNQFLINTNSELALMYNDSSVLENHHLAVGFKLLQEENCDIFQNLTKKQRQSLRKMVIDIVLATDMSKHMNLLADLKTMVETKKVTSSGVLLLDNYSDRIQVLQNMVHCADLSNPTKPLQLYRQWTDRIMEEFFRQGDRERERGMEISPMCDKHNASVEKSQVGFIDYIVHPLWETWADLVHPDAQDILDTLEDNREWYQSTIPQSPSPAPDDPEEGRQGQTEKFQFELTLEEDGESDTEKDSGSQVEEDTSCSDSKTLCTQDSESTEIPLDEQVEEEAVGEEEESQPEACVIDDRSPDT

What is called IC50 is the point on the concentration scale where inhibition reaches its midpoint. As a reminder, the Tmax is the time at which the peak concentration occurs. What is called Cmax is the maximum level reached in the sampled fluid or tissue. Usually half-life stands for the time needed for the level to fall by half in the phase considered. As a reminder, the inhibition in vivo is the percentage by which the read-out fell short of the control. Regarding `COc1c(OCc2ccc(F)cc2)cc2oc3cc4c(c(OC/C=C/C(=O)O)c3c(=O)c2c1CC=C(C)C)C=CC(C)(C)O4`, the half-inhibitory concentration (IC50) in [1] is 15 nM; in [2] it was 440 nM; in [3] it was 940 nM; in [4], 93 nM; in series [5], 298 nM; against Cytochrome P450 2D6, more than 25000 nM. In series [6], the time to peak (Tmax) was 1 h. In series [7], the peak level (Cmax) was 1070 ng/mL. In series [8], the half-life worked out at 12.2 h. Moreover, the Activity result in [9] and in series [10] was “Non-Toxic” throughout. In addition, the result in the series on Rattus norvegicus [11], in the series with Rattus norvegicus [12] and in the series on Rattus norvegicus [13] was Active. For the same molecule, in the series with Rattus norvegicus [14], the inhibition in vivo at 10 mg/kg is 100%.
